Laboratory results as given in patent US20130059375A1, “METHOD FOR PREPARING ES CELLS” (RIKEN, priority 2010, published 2013).

System: inner cell mass (ICM) of NOD/SCID mouse
Assay: Inventors' earlier attempts to establish ES cells from NOD/SCID inner cell mass by known methods
Assay type: cell-based
Details: factor(s) in medium
Method: The present inventors have considered that this problem can be solved by establishing an ES cell from an NOD/SCID background mouse and introducing human gene thereinto to generate the human gene-introduced NOD/SCID background mouse. […] Furthermore, an FGF receptor inhibitor, an MEK activation inhibitor and a GSK3 inhibitor were added to the medium according to the method that established an ES cell from an NOD mouse (non-patent document 4).

In the case of “ACTH: known peptide hormone consisting of 39 amino acids (SYSMEHFRWGKPVGKKRRPVKVYPNGAEDESAEAFPLEF; Corticotropin; UniProt P01189 138-176, looked up)”, the “establishment of ES cell” value was “could not establish”.
